In BindingDB's records for PubMed 35144038 (Shaoxing University, 2022):

Biological target: High affinity cGMP-specific 3',5'-cyclic phosphodiesterase 9A (Homo sapiens, UniProt O76083)
Assay: Inhibition of recombinant human PDE9A1 by radiometric assay

High affinity cGMP-specific 3',5'-cyclic phosphodiesterase 9A, sequence (O76083 whole entry): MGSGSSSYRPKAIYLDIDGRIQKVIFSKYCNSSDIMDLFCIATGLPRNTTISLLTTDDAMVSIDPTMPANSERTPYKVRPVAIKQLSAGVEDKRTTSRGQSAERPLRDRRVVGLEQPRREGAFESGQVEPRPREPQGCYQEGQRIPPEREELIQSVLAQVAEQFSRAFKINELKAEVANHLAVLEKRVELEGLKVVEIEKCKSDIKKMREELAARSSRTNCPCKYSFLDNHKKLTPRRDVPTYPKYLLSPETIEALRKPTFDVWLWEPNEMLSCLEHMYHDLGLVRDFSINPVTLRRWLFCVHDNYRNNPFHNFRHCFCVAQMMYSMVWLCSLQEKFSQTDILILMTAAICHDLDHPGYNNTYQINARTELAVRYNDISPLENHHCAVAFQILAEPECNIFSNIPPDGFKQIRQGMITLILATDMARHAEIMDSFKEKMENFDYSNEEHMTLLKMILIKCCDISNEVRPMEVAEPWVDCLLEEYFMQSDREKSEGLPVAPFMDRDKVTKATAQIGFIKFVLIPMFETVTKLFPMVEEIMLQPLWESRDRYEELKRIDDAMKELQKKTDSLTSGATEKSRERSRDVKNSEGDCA

## C[C@@H]1CN(Cc2ncccn2)C[C@H]1c1cn2c(C3CCOCC3)ncc2c(=O)[nH]1 [US10513524, Compound (P3]
  IC50: 8.2 nM
